How the values were obtained:
Type in all cases: in vivo
[1] = system: Spodoptera littoralis (Egyptian cotton leaf worm); test: Example B6: Activity against Spodoptera littoralis (Egyptian cotton leaf worm); conditions: foliar, 72 h, application rate 200 ppm, cotton leaf discs sprayed, L1 larvae, 3 days after infestation, read-out: control (mortality, anti-feeding effect or growth inhibition)
Method: Example B6: Activity Against Spodoptera littoralis (Egyptian Cotton Leaf Worm)
Cotton leaf discs were placed onto agar in 24-well microtiter plates and sprayed with aqueous test solutions prepared from 10,000 ppm DMSO stock solutions. After drying the leaf discs were infested with five L1 larvae. The samples were assessed for mortality, anti-feeding effect, and growth inhibition in comparison to untreated samples 3 days after infestation. Control of Spodoptera littoralis by a test sample is given when at least one of the categories mortality, anti-feedant effect, and growth inhibition is higher than the untreated sample.

[2] = system: Diabrotica balteata (corn root worm); test: Example B1: Activity against Diabrotica balteata (corn root worm); conditions: 96 h, application rate 200 ppm, maize sprouts sprayed, L2 larvae, 4 days after infestation, read-out: effect in at least one of the two categories (mortality or growth inhibition)
Method: Example B1: Activity Against Diabrotica Balteata (Corn Root Worm)
Maize sprouts placed onto an agar layer in 24-well microtiter plates were treated with aqueous test solutions prepared from 10,000 ppm DMSO stock solutions by spraying. After drying, the plates were infested with L2 larvae (6 to 10 per well). The samples were assessed for mortality and growth inhibition in comparison to untreated samples 4 days after infestation.

[3] = system: Myzus persicae (green peach aphid); test: Example B4: Activity against Myzus persicae (green peach aphid), feeding/contact activity; conditions: foliar, 144 h, application rate 200 ppm, sunflower leaf discs sprayed, aphid population of mixed ages, 6 days after infestation
Method: Example B4: Activity Against Myzus persicae (Green Peach Aphid) Feeding/Contact Activity
Sunflower leaf discs were placed onto agar in a 24-well microtiter plate and sprayed with aqueous test solutions prepared from 10,000 ppm DMSO stock solutions. After drying, the leaf discs were infested with an aphid population of mixed ages. The samples were assessed for mortality 6 days after infestation.

[4] = system: Euschistus heros (neotropical brown stink bug); test: Example B2: Activity against Euschistus heros (neotropical brown stink bug); conditions: 120 h, application rate 200 ppm, soybean leaves sprayed, N2 nymphs, 5 days after infestation, read-out: effect in at least one of the two categories (mortality or growth inhibition)
Method: Example B2: Activity Against Euschistus heros (Neotropical Brown Stink Bug)
Soybean leaves on agar in 24-well microtiter plates were sprayed with aqueous test solutions prepared from 10,000 ppm DMSO stock solutions. After drying the leaves were infested with N2 nymphs. The samples were assessed for mortality and growth inhibition in comparison to untreated samples 5 days after infestation.

[5] = system: Plutella xylostella (diamond back moth); test: Example B5: Activity against Plutella xylostella (diamond back moth); conditions: 192 h, application rate 200 ppm, artificial diet treated by pipetting, eggs, 8 days after infestation, read-out: effect in at least one of the two categories (mortality or growth inhibition)
Method: Example B5: Activity Against Plutella xylostella (Diamond Back Moth)
24-well microtiter plates with artificial diet were treated with aqueous test solutions prepared from 10,000 ppm DMSO stock solutions by pipetting. After drying, Plutella eggs were pipetted through a plastic stencil onto a gel blotting paper and the plate was closed with it. The samples were assessed for mortality and growth inhibition in comparison to untreated samples 8 days after infestation. The following compounds gave an effect of at least 80% in at least one of the two categories (mortality or growth inhibition) at an application rate of 200 ppm: P1, P2, P4, P5, P6, P7, P9, P10, P11, P12, P13, P14, P15, P16, P17, P18.

[6] = system: Chilo suppressalis (striped rice stemborer); test: Example B8: Activity against Chilo suppressalis (striped rice stemborer); conditions: 144 h, application rate 200 ppm, artificial diet treated by pipetting, L2 larvae, 6 days after infestation, read-out: control (mortality, anti-feeding effect or growth inhibition)
Method: Example B8: Activity Against Chilo suppressalis (Striped Rice Stemborer)
24-well microtiter plates with artificial diet were treated with aqueous test solutions prepared from 10,000 ppm DMSO stock solutions by pipetting. After drying, the plates were infested with L2 larvae (6-8 per well). The samples were assessed for mortality, anti-feeding effect, and growth inhibition in comparison to untreated samples 6 days after infestation. Control of Chilo suppressalis by a test sample is given when at least one of the categories mortality, anti-feedant effect, and growth inhibition is higher than the untreated sample.

[7] = system: Frankliniella occidentalis (western flower thrips); test: Example B3: Activity against Frankliniella occidentalis (western flower thrips), feeding/contact activity; conditions: foliar, 168 h, application rate 200 ppm, sunflower leaf discs sprayed, population of mixed ages, 7 days after infestation
Method: Example B3: Activity Against Frankliniella occidentalis (Western Flower Thrips) Feeding/Contact Activity
Sunflower leaf discs were placed on agar in 24-well microtiter plates and sprayed with aqueous test solutions prepared from 10,000 DMSO stock solutions. After drying the leaf discs were infested with a Frankliniella population of mixed ages. The samples were assessed for mortality 7 days after infestation.

[8] = system: Myzus persicae (green peach aphid); test: Example B9: Activity against Myzus persicae (green peach aphid), systemic activity; conditions: 144 h, test rate 24 ppm, roots of infested pea seedlings placed into test solution, 6 days
Method: Example B9: Activity Against Myzus persicae (Green Peach Aphid). Systemic Activity
Roots of pea seedlings infested with an aphid population of mixed ages were placed directly into aqueous test solutions prepared from 10,000 DMSO stock solutions. The samples were assessed for mortality 6 days after placing seedlings into test solutions.

[9] = system: Bemisia tabaci (cotton white fly); test: Example B7: Activity against Bemisia tabaci (cotton white fly), feeding/contact activity; conditions: foliar, 144 h, application rate 200 ppm, cotton leaf discs sprayed, adult white flies, 6 days after incubation
Method: Example B7: Activity Against Bemisia tabaci (Cotton White Fly) Feeding/Contact Activity
Cotton leaf discs were placed on agar in 24-well microtiter plates and sprayed with aqueous test solutions prepared from 10,000 ppm DMSO stock solutions. After drying the leaf discs were infested with adult white flies. The samples were checked for mortality 6 days after incubation.

CCS(=O)(=O)c1c(N2Cc3ccc(OC(F)(F)F)cc3C2=O)nc(-c2cnn(C3CC3)c2)n1C [Compound P1, 2-[2-(1-cyclopropylpyrazol-4-yl)-5-ethylsulfonyl-1-methyl-imidazol-4-yl]-6-(trifluoromethoxy)isoindolin-1-one]
≥ 80%: control at 200 ppm [1] | mortality or growth inhibition at 200 ppm [2] | mortality at 200 ppm [3] | percent effect (mortality or growth inhibition) at 200 ppm [4] | effect (mortality or growth inhibition) at 200 ppm [5] | control at 200 ppm [6] | mortality at 200 ppm [7]

CCS(=O)(=O)c1c(N2Cc3ncc(C(F)(F)F)cc3C2=O)nc(-c2cnn(CC3CC3)c2)n1C [Compound P9, 6-[2-[1-(cyclopropylmethyl)pyrazol-4-yl]-5-ethylsulfonyl-1-methyl-imidazol-4-yl]-3-(trifluoromethyl)-7H-pyrrolo[3,4-b]pyridin-5-one]
≥ 80%: control at 200 ppm [1] | mortality or growth inhibition at 200 ppm [2] | mortality at 200 ppm [3] | percent effect (mortality or growth inhibition) at 200 ppm [4] | effect (mortality or growth inhibition) at 200 ppm [5] | control at 200 ppm [6] | mortality at 24 ppm [8]

CCS(=O)(=O)c1c(N2Cc3ncc(C(F)(F)F)cc3C2=O)nc(-c2cnn(CC(F)(F)F)c2)n1C [Compound P10, 6-[5-ethylsulfonyl-1-methyl-2-[1-(2,2,2-trifluoroethyl)pyrazol-4-yl]imidazol-4-yl]-3-(trifluoromethyl)-7H-pyrrolo[3,4-b]pyridin-5-one]
≥ 80%: control at 200 ppm [1] | mortality or growth inhibition at 200 ppm [2] | mortality at 200 ppm [3] | percent effect (mortality or growth inhibition) at 200 ppm [4] | effect (mortality or growth inhibition) at 200 ppm [5] | control at 200 ppm [6] | mortality at 24 ppm [8]

CCS(=O)(=O)c1c(N2Cc3ncc(C(F)(F)F)cc3C2=O)nc(-c2cnn(C(F)F)c2)n1C [Compound P13, 6-[2-[1-(difluoromethyl)pyrazol-4-yl]-5-ethylsulfonyl-1-methyl-imidazol-4-yl]-3-(trifluoromethyl)-7H-pyrrolo[3,4-b]pyridin-5-one]
≥ 80%: control at 200 ppm [1] | mortality or growth inhibition at 200 ppm [2] | mortality at 200 ppm [3] | percent effect (mortality or growth inhibition) at 200 ppm [4] | effect (mortality or growth inhibition) at 200 ppm [5] | control at 200 ppm [6] | mortality at 24 ppm [8]

CCS(=O)(=O)c1c(N2Cc3ncc(C(F)(F)F)cc3C2=O)nc(C2CC2)n1C [Compound P17, 6-(2-cyclopropyl-5-ethylsulfonyl-1-methyl-imidazol-4-yl)-3-(trifluoromethyl)-7H-pyrrolo[3,4-b]pyridin-5-one]
≥ 80%: control at 200 ppm [1] | mortality or growth inhibition at 200 ppm [2] | mortality at 200 ppm [3] | effect (mortality or growth inhibition) at 200 ppm [5] | control at 200 ppm [6] | mortality at 200 ppm [9] | mortality at 24 ppm [8]

— patent publication US20240018128A1, “PESTICIDALLY ACTIVE HETEROCYCLIC DERIVATIVES WITH SULFUR CONTAINING SUBSTITUENTS” (SYNGENTA CROP PROTECTION AG, priority 2020, published 2024)
